Measurements published in ChEMBL document CHEMBL4651402, “Screening of ~5500 FDA-approved drugs and clinical candidates for anti-SARS-CoV-2 activity” (2021).

System: SARS-CoV-2
Assay: microbe, parasite or virus in culture
Conditions: Severe acute respiratory syndrome coronavirus 2, Vero C1008, 48 h

| SMILES | IC50 | IC50 (read-out: pIC50 (converted)) |
| --- | --- | --- |
| CN(C)CCCN1c2ccccc2Sc2ccc(C(F)(F)F)cc21 [TRIFLUPROMAZINE] | > 20 µM | > 20 µM |
| CCC[C@]1(c2cccc(O)c2)CCN(C)C[C@@H]1C | > 20 µM | > 20 µM |
| O=C(Cc1cccc(OC(F)(F)F)c1)Nc1ccc(CCCCc2nnc(NC(=O)Cc3ccccn3)s2)nn1 | > 20 µM | > 20 µM |
| O=c1cc(-c2ccccc2)oc2cc(O)ccc12 [7-HYDROXYFLAVONE] | > 20 µM | > 20 µM |
| NC1=NCC(CN2CCN(c3ccccc3)CC2)O1 (stereo not given) | > 20 µM | > 20 µM |
| Oc1c(I)cc(I)c2cccnc12 [IODOQUINOL] | > 20 µM | > 20 µM |
| Cn1c(=O)c2c(ncn2CC2OCCO2)n(C)c1=O [DOXOFYLLINE] | > 20 µM | > 20 µM |
| CCOc1ncc(S(=O)(=O)N2CCN(CC)CC2)cc1-c1nc2c(CC)n(CCOC)nc2c(=O)[nH]1 | > 20 µM | > 20 µM |
| O=c1[nH]cnc2c1ncn2[C@@H]1O[C@H](CO)[C@@H](O)[C@H]1O [INOSINE] | > 20 µM | > 20 µM |
| C[C@H](CCC(=O)O)[C@H]1CC[C@H]2[C@@H]3CCC4C[C@H](O)CC[C@]4(C)[C@H]3CC[C@]12C (stereo not given in full) | > 20 µM | > 20 µM |
| CO[C@H]1/C=C\O[C@@]2(C)Oc3c(C)c(O)c4c(=O)c(c5oc6cc(N7CCN(CC(C)C)CC7)cc(O)c6nc-5c4c3C2=O)NC(=O)/C(C)=C\C=C/[C@H](C)[C@H](O)[C@@H](C)[C@@H](O)[C@@H](C)[C@H](OC(C)=O)[C@@H]1C | > 20 µM | > 20 µM |
| O=C(O)C1(c2ccc3c(c2)OC[C@H](Cc2ccc(-c4ccccc4)cc2)[C@H]3O)CCCC1 | > 20 µM | > 20 µM |
| CC1(C)CCC(C)(C)c2cc(NC(=O)c3ccc(C(=O)O)cc3)ccc21 [TAMIBAROTENE] | > 20 µM | > 20 µM |
| CC(=O)N1C[C@H](O)C[C@H]1C(=O)N[C@@H](CCCN=C(N)N)C(=O)c1nc2ccccc2s1 | > 20 µM | > 20 µM |
| COC(=S)NCCn1c([N+](=O)[O-])cnc1C [CARNIDAZOLE] | > 20 µM | > 20 µM |
| CC1=C(/C=C/C(C)=C/C=C/C(C)=C/C(=O)O)C(C)(C)CCC1 [TRETINOIN] | > 20 µM | > 20 µM |
| CCCCCCCCCCCCCCCC(=O)OCC(O)C1OC(=O)C(O)=C1O (stereo not given) | > 20 µM | > 20 µM |
| CC[C@H]1OC(=O)[C@H](C)C(=O)[C@H](C)[C@@H](O[C@@H]2O[C@H](C)C[C@H](N(C)C)[C@H]2O)[C@](C)(OCC=Cc2cnc3ccccc3c2)C[C@@H](C)C(=O)[C@H](C)[C@H]2NC(=O)O[C@@]21C [CETHROMYCIN] | > 20 µM | > 20 µM |

| SMILES | IC50 | IC50 (read-out: pIC50 (converted)) |
| --- | --- | --- |
| CCOC(=O)[C@H](CCc1ccccc1)N[C@H]1CCCN2CCC[C@@H](C(=O)O)N2C1=O [CILAZAPRIL] | > 20 µM | > 20 µM |
| COC(=O)C1=C(C)NC(C)=C(C(=O)O[C@@H]2CCN(Cc3ccccc3)C2)[C@H]1c1cccc([N+](=O)[O-])c1 | > 20 µM | > 20 µM |
| CC(=O)[C@@]1(O)CC[C@H]2[C@@H]3CCC4=CC(=O)CC[C@]4(C)[C@H]3CC[C@@]21C [HYDROXYPROGESTERONE] | > 20 µM | > 20 µM |
| CCOc1ccccc1OCC1CNCCO1 (stereo not given) [VILOXAZINE] | > 20 µM | > 20 µM |
| O=C(NC(Cc1cc(=O)[nH]c2ccccc12)C(=O)O)c1ccc(Cl)cc1 (stereo not given) [REBAMIPIDE] | > 20 µM | > 20 µM |
| O=C(O)C(O)C(O)C(O)C(O)C(O)CO (stereo not given) | > 20 µM | > 20 µM |
| CC1OC(n2cc(F)c(=O)[nH]c2=O)C(O)C1O (stereo not given) | > 20 µM | > 20 µM |
| COc1cc(F)c(C(C)C)cc1-c1ccc(C(F)(F)F)cc1CN1C(=O)O[C@H](c2cc(C(F)(F)F)cc(C(F)(F)F)c2)[C@@H]1C [ANACETRAPIB] | > 20 µM | > 20 µM |
| N[C@H]1CONC1=O [LEVCYCLOSERINE] | > 20 µM | > 20 µM |
| CCCCOc1cc(CC2CNC(=O)N2)ccc1OC (stereo not given) [RO-201724] | > 20 µM | > 20 µM |
| C[C@@H](NCCc1ccc(O)cc1)[C@@H](O)c1ccc(O)cc1 [rel-RITODRINE] | > 20 µM | > 20 µM |
| CO[C@H]1C(O)C[C@H](O[C@H]2C(O)C[C@H](O[C@H]3C(O)C[C@H](OC4CC[C@@]5(C)C(CCC6C5CC(O)[C@]5(C)[C@@H](C7=CC(=O)OC7)CCC65O)C4)OC3C)OC2C)OC1C (stereo not given in full) | > 20 µM | > 20 µM |
| CC1CC2C3CCC4=CC(=O)C=CC4(C)[C@@]3(F)C(O)CC2(C)C1(O)C(=O)COP(=O)(O)O (stereo not given in full) | > 20 µM | > 20 µM |
| Oc1cccc2cccnc12 [OXYQUINOLINE] | > 20 µM | > 20 µM |
| CCCC(=O)Nc1ncnc2c1ncn2[C@@H]1O[C@@H]2COP(=O)(O)O[C@H]2[C@H]1OC(=O)CCC [BUCLADESINE] | > 20 µM | > 20 µM |
| N[C@@H](Cc1c[nH]c2ccccc12)C(=O)O [TRYPTOPHAN] | > 20 µM | > 20 µM |
| CCOC(=O)[C@H](C)C[C@@H](Cc1ccc(-c2ccccc2)cc1)NC(=O)CCC(=O)O [SACUBITRIL] | > 20 µM | > 20 µM |
